Assay results reported in PubChem BioAssay AID1918996 (Molecular Pharmacology Branch, DTP, NCI, 2023).
Each block holds one compound with its values, some of them ahead of it.

System: 349418-098-R-PDC complex spheroid growth
Test: Anticancer human tumor 349418-098-R-PDC patient-derived lung adenocarcinoma cell line growth inhibition [AhR]
Settings: for IC50: curve of first compound; for viability, T/C: stronger effect = lower value
How it was run: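 Agents were dosed in half-log steps down from roughly clinical Cmax, or from 10 microM where Cmax was unknown, alone and with AhR antagonists. Read-out: percent test/control growth of tumor spheroids containing HUVEC and MSC stromal cells.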
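Note: spheroids exposed to agents for seven days before luminescence viability read.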
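Throughout, for viability, T/C: spheroids also contain HUVEC endothelial cells and human MSC stroma.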

- IC50 (second compound 0.1 µM): > 10 µM
- IC50 (second compound 0.316 µM): > 10 µM
- IC50 (second compound 1 µM): > 10 µM
- IC50 (second compound 3.16 µM): < 0.0316 µM
- IC50 (second compound 10 µM): < 0.0316 µM
SMILES: CC1(C)CCC(CN2CCN(c3ccc(C(=O)NS(=O)(=O)c4ccc(NCC5CCOCC5)c([N+](=O)[O-])c4)c(Oc4cnc5[nH]ccc5c4)c3)CC2)=C(c2ccc(Cl)cc2)C1 + Cc1cncc(-c2nc(NCCc3c[nH]c4ccccc34)c3ncn(C(C)C)c3n2)c1
- viability, T/C (second compound 0.1 µM, first compound 0.0316 µM): 102%
- viability, T/C (second compound 0.1 µM, first compound 0.1 µM): 108%
- viability, T/C (second compound 0.1 µM, first compound 0.316 µM): 96.2%
- viability, T/C (second compound 0.1 µM, first compound 1 µM): 92.4%
- viability, T/C (second compound 0.1 µM, first compound 3.16 µM): 90.2%
- viability, T/C (second compound 0.1 µM, first compound 10 µM): 88.4%
- viability, T/C (second compound 0.316 µM, first compound 0.0316 µM): 99.3%
- viability, T/C (second compound 0.316 µM, first compound 0.1 µM): 99.8%
- viability, T/C (second compound 0.316 µM, first compound 0.316 µM): 103%
- viability, T/C (second compound 0.316 µM, first compound 1 µM): 87.7%
- viability, T/C (second compound 0.316 µM, first compound 3.16 µM): 90.8%
- viability, T/C (second compound 0.316 µM, first compound 10 µM): 94.1%
- viability, T/C (second compound 1 µM, first compound 0.0316 µM): 104%
- viability, T/C (second compound 1 µM, first compound 0.1 µM): 98.5%
- viability, T/C (second compound 1 µM, first compound 0.316 µM): 91.3%
- viability, T/C (second compound 1 µM, first compound 1 µM): 81.4%
- viability, T/C (second compound 1 µM, first compound 3.16 µM): 83%
- viability, T/C (second compound 1 µM, first compound 10 µM): 86.4%
- viability, T/C (second compound 3.16 µM, first compound 0.0316 µM): 22.3%
- viability, T/C (second compound 3.16 µM, first compound 0.1 µM): 24.5%
- viability, T/C (second compound 3.16 µM, first compound 0.316 µM): 23.2%
- viability, T/C (second compound 3.16 µM, first compound 1 µM): 28.6%
- viability, T/C (second compound 3.16 µM, first compound 3.16 µM): 27.3%
- viability, T/C (second compound 3.16 µM, first compound 10 µM): 26.6%
- viability, T/C (second compound 10 µM, first compound 0.0316 µM): 3.27%
- viability, T/C (second compound 10 µM, first compound 0.1 µM): 2.85%
- viability, T/C (second compound 10 µM, first compound 0.316 µM): 2.92%
- viability, T/C (second compound 10 µM, first compound 1 µM): 3.37%
- viability, T/C (second compound 10 µM, first compound 3.16 µM): 3.16%
- viability, T/C (second compound 10 µM, first compound 10 µM): 3.69%

- IC50 (second compound 0.1 µM): > 3 µM
- IC50 (second compound 0.316 µM): > 3 µM
- IC50 (second compound 1 µM): > 3 µM
- IC50 (second compound 3.16 µM): < 0.00949 µM
- IC50 (second compound 10 µM): < 0.00949 µM
SMILES: CCN(c1cc(-c2ccc(CN3CCOCC3)cc2)cc(C(=O)NCc2c(C)cc(C)[nH]c2=O)c1C)C1CCOCC1 + Cc1cncc(-c2nc(NCCc3c[nH]c4ccccc34)c3ncn(C(C)C)c3n2)c1
- viability, T/C (second compound 0.1 µM, first compound 0.00949 µM): 98.9%
- viability, T/C (second compound 0.1 µM, first compound 0.03 µM): 85%
- viability, T/C (second compound 0.1 µM, first compound 0.0949 µM): 98%
- viability, T/C (second compound 0.1 µM, first compound 0.3 µM): 96.5%
- viability, T/C (second compound 0.1 µM, first compound 0.949 µM): 97.7%
- viability, T/C (second compound 0.1 µM, first compound 3 µM): 80.5%
- viability, T/C (second compound 0.316 µM, first compound 0.00949 µM): 105%
- viability, T/C (second compound 0.316 µM, first compound 0.03 µM): 94.2%
- viability, T/C (second compound 0.316 µM, first compound 0.0949 µM): 103%
- viability, T/C (second compound 0.316 µM, first compound 0.3 µM): 103%
- viability, T/C (second compound 0.316 µM, first compound 0.949 µM): 105%
- viability, T/C (second compound 0.316 µM, first compound 3 µM): 76.5%
- viability, T/C (second compound 1 µM, first compound 0.00949 µM): 82.8%
- viability, T/C (second compound 1 µM, first compound 0.03 µM): 94%
- viability, T/C (second compound 1 µM, first compound 0.0949 µM): 81%
- viability, T/C (second compound 1 µM, first compound 0.3 µM): 74.5%
- viability, T/C (second compound 1 µM, first compound 0.949 µM): 77.2%
- viability, T/C (second compound 1 µM, first compound 3 µM): 71.9%
- viability, T/C (second compound 3.16 µM, first compound 0.00949 µM): 19.9%
- viability, T/C (second compound 3.16 µM, first compound 0.03 µM): 17.9%
- viability, T/C (second compound 3.16 µM, first compound 0.0949 µM): 19.6%
- viability, T/C (second compound 3.16 µM, first compound 0.3 µM): 15.1%
- viability, T/C (second compound 3.16 µM, first compound 0.949 µM): 14.2%
- viability, T/C (second compound 3.16 µM, first compound 3 µM): 12.3%
- viability, T/C (second compound 10 µM, first compound 0.00949 µM): 3.07%
- viability, T/C (second compound 10 µM, first compound 0.03 µM): 3.18%
- viability, T/C (second compound 10 µM, first compound 0.0949 µM): 2.66%
- viability, T/C (second compound 10 µM, first compound 0.3 µM): 2.82%
- viability, T/C (second compound 10 µM, first compound 0.949 µM): 2.27%
- viability, T/C (second compound 10 µM, first compound 3 µM): 1.62%
